Measured values reported in ChEMBL document CHEMBL4390686, “Design, Synthesis, and Pharmacokinetic Evaluation of Phosphate and Amino Acid Ester Prodrugs for Improving the Oral Bioavailability of the HIV-1 Protease Inhibitor Atazanavir” (J Med Chem, 2019).
≈ marks a conversion by molar mass, not a printed value.

Columns and labels:
physchem [1] = details: HCl buffer, pH 1
Description: Aqueous solubility of the compound in pH 1 HCl buffer by RP-UPLC analysis

[2] = tested on: Human immunodeficiency virus 1
Description: Antiviral activity against HIV1 NL4-3 infected in human MT2 cells assessed as reduction in viral yield measured after 4 days by EnduRen live cell substrate based luciferase reporter gene assay

[3] = rat, in vivo, po, 3 mg/kg
physchem [4] = details: 30% CH3CN/HCl buffer, pH 1
Description: Half life in pH 1 30%CH3CN/HCl buffer at 50 mM by RP-UPLC analysis

physchem [5] = details: phosphate buffer, pH 6.5
Description: Aqueous solubility of the compound in pH 6.5 phosphate buffer by RP-UPLC analysis

Protease = Protease (Human immunodeficiency virus 1, UniProt Q9YQ12)
Description: Inhibition of HIV1 protease activity

physchem [6] = details: acetate buffer, pH 4
Description: Aqueous solubility of the compound in pH 4 acetate buffer by RP-UPLC analysis

[7] = rat, in vivo, po, 3 mg/kg; remark: listed apart in the source
physchem [8] = details: 30% CH3CN/acetate buffer, pH 4
Description: Half life in pH 4 30%CH3CN/acetate buffer at 50 mM by RP-UPLC analysis

physchem [9] = details: 30% CH3CN/phosphate buffer, pH 6.5
Description: Half life in pH 6.5 30%CH3CN/phosphate buffer at 50 mM by RP-UPLC analysis

[10] = rat, in vivo, po, 3 mg/kg; remark: listed apart in the source
Description: AUClast in cannulated Sprague-Dawley rat assessed as atazanavir level at 3 mg/kg equiv of atazanavir administered orally by UPLC/MS/MS analysis

Chain of Protease (Q9YQ12 whole entry): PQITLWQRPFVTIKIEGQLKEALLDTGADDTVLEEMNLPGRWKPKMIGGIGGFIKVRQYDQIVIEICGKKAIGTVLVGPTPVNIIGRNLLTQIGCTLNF

Row | Structure (SMILES) | solubility (physchem [1]) | EC50 [2] | Tmax [3] | half-life at 50000 µM (physchem [4]) | solubility (physchem [5]) | IC50 (Protease) | solubility (physchem [6]) | Cmax [7] | half-life at 50000 µM (physchem [8]) | half-life at 50000 µM (physchem [9]) | AUClast [10]
1 | COC(=O)N[C@H](C(=O)N[C@@H](Cc1ccccc1)[C@H](CN(Cc1ccc(-c2ccccn2)cc1)NC(=O)[C@@H](NC(=O)OC)C(C)(C)C)OC(=O)[C@H](N)Cc1ccccc1)C(C)(C)C | > 1200 µg/mL | 0.9 to 1250 nM | 0.021 days | > 20.8 days | < 1 µg/mL | 4 to 1140 nM | > 1200 µg/mL | 64 nM | > 20.8 days | > 20.8 days | 0.154 µM·h
2 | CN[C@@H](Cc1ccccc1)C(=O)N(C)CC(=O)O[C@@H](CN(Cc1ccc(-c2ccccn2)cc1)NC(=O)[C@@H](NC(=O)OC)C(C)(C)C)[C@H](Cc1ccccc1)NC(=O)[C@@H](NC(=O)OC)C(C)(C)C | > 2700 µg/mL | – | 0.012 days | 15.7 days | – | – | – | 160 nM | 0.65 days | 0.00333 days | 0.092 µM·h
3 | COC(=O)N[C@H](C(=O)N[C@@H](Cc1ccccc1)[C@H](CN(Cc1ccc(-c2ccccn2)cc1)NC(=O)[C@@H](NC(=O)OC)C(C)(C)C)OC(=O)[C@@H](C)N)C(C)(C)C | > 1300 µg/mL | 0.9 to 1250 nM | 0.179 days | > 20.8 days | 520 µg/mL (≈ 670 µM) | 4 to 1140 nM | > 1700 µg/mL | 3 nM | > 20.8 days | 1.57 days | 0.008 µM·h
4 | CNCC(=O)O[C@@H](CN(Cc1ccc(-c2ccccn2)cc1)NC(=O)[C@@H](NC(=O)OC)C(C)(C)C)[C@H](Cc1ccccc1)NC(=O)[C@@H](NC(=O)OC)C(C)(C)C | > 2200 µg/mL | – | 0.021 days | > 20.8 days | 930 µg/mL (≈ 1200 µM) | – | > 2400 µg/mL | 9 nM | > 13.9 days | 1.04 days | 0.0296 µM·h
5 | COC(=O)N[C@H](C(=O)N[C@@H](Cc1ccccc1)[C@H](CN(Cc1ccc(-c2ccccn2)cc1)NC(=O)[C@@H](NC(=O)OC)C(C)(C)C)OC(=O)[C@@H](NC(=O)[C@H](N)C(C)C)C(C)C)C(C)(C)C | > 2000 µg/mL | 0.9 to 1250 nM | – | > 20.8 days | 620 µg/mL (≈ 686 µM) | 4 to 1140 nM | > 2000 µg/mL | – | > 20.8 days | > 20.8 days | –
6 | COC(=O)N[C@H](C(=O)N[C@@H](Cc1ccccc1)[C@H](CN(Cc1ccc(-c2ccccn2)cc1)NC(=O)[C@@H](NC(=O)OC)C(C)(C)C)OC(=O)[C@H](NC(=O)[C@@H](N)C(C)C)C(C)C)C(C)(C)C | > 1710 µg/mL | 0.9 to 1250 nM | – | > 20.8 days | 930 µg/mL (≈ 1030 µM) | 4 to 1140 nM | > 1420 µg/mL | – | > 20.8 days | > 20.8 days | –
7 | COC(=O)N[C@H](C(=O)N[C@@H](Cc1ccccc1)[C@H](CN(Cc1ccc(-c2ccccn2)cc1)NC(=O)[C@@H](NC(=O)OC)C(C)(C)C)OC(=O)[C@H](C)N)C(C)(C)C | > 1300 µg/mL | 0.9 to 1250 nM | 0.12 days | > 20.8 days | 750 µg/mL (≈ 967 µM) | 4 to 1140 nM | > 1100 µg/mL | 39 nM | > 20.8 days | 1.57 days | 0.094 µM·h
8 | COC(=O)N[C@H](C(=O)N[C@@H](Cc1ccccc1)[C@H](CN(Cc1ccc(-c2ccccn2)cc1)NC(=O)[C@@H](NC(=O)OC)C(C)(C)C)OC(=O)CN(C)C(=O)[C@H](Cc1ccccc1)N(C)C)C(C)(C)C | > 1200 µg/mL | – | 0.021 days | 15.7 days | 20 µg/mL (≈ 21 µM) | – | > 2200 µg/mL | 285 nM | > 20.8 days | > 13.9 days | 0.359 µM·h
